In patent US5455351A, “Retroviral protease inhibiting piperazine compounds” (Abbott Laboratories, priority 1993, dated 1995):

Assays:
[1] = system: HIV-13B; assay: Antiviral activity: inhibition of the cytopathic effect of HIV in MT4 cells; assay type: cell-based; details: Human immunodeficiency virus 1; HIV-13B in MT4 cells; read-out: IC50 (concentration of compound that gives 50% inhibition of the cytopathic effect of HIV)
From the text: (§1) The anti-HIV activity of the compounds of the invention can be determined in MT4 cells according to the procedure of Kempf, et. al. (Antimicrob. Agents Chemother. 1991, 35, 2209). The IC50 is the concentration of compound that gives 50% inhibition of the cytopathic effect of HIV. The LC50 is the concentration of compound at which 50% of the cells remain viable.

[2] = biological target: T1, HIV-1 protease (HIV-1 M:B_HXB2R, UniProt P04585); assay: Fluorogenic Assay for Screening Inhibitors of HIV Protease; assay type: biochemical; details: inhibitor concentration 0.5 nanomolar; pH 4.5; 30° C.; 1.3 μM fluorogenic substrate; read-out: Percent Inhibition
T1 construct: fluorogenic DABCYL/EDANS peptide substrate
Experimental: The inhibitory potency of the compounds of the invention can be determined by the following method.
A compound of the invention is dissolved in DMSO and a small aliquot further diluted with DMSO to 100 times the final concentration desired for testing. The reaction is carried out in a 6×50 mm tube in a total volume of 300 microliters. The final concentrations of the components in the reaction buffer are: 125 mM sodium acetate, 1 M sodium chloride, 5 mM dithiothreitol, 0.5 mg/ml bovine serum albumin, 1.3 μM fluorogenic substrate, 2% (v/v) dimethylsulfoxide, pH 4.5. After addition of inhibitor, the reaction mixture is placed in the fluorometer cell holder and incubated at 30° C. for several minutes. The reaction is initiated by the addition of a small aliquot of cold HIV protease. The fluorescence intensity (excitation 340 nm, emmision 490 nM) is recorded as a function of time. The reaction rate is determined for the first six to eight minutes. The observed rate is directly proportional to the moles of substrate cleaved per unit time. The percent inhibition is 100 X (1 -(rate in presence of inhibitor)/(rate in absence of inhibitor)).
Fluorogenic substrate: DabcyI-Ser-GIn-Asn-Tyr-Pro-Ile-VaI-GIn-EDANS wherein DABCYL=4-(4-dimethylamino-phenyl)azobenzoic acid and EDANS=5-((2-aminoethyl)amino)-naphthalene-1-sulfonic acid.

[3] = Viability (LC50) of MT4 cells; assay type: cell-based; details: human, read-out: LC50 (concentration of compound at which 50% of the cells remain viable)
From the text: as §1

CC(C)(C)NC(=O)[C@@H]1CN(Cc2cncs2)CCN1C[C@@H](O)C[C@@H](Cc1ccccc1)C(=O)N[C@H]1c2ccccc2C[C@H]1O [Example 1R, (1S,2R,2'R,4'S,2"S)-1-((2-Benzyl-5-(((2-(t-butyl)amino)carbonyl)-4-((thiazol-5-yl)methyl)piperazin-1-yl)-4-hydroxypentanoyl)amino)indan-2-ol]
IC50 [1]: 0.016 µM | inhibition at 0.0005 µM [2]: 61% | CC50 [3]: > 100 µM
